Read-outs that look alike come from different tables or passages of the source.
Assays:
TGFβ signal = TGFβ signal inhibitory activity, (SBE)4-Luc reporter in A549 cells (Test Examples 1A and 1B); type: cell-based, human; conditions: Homo sapiens, A549, read-out: TGFβ inhibition rate, %
Procedure, shortened: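 Compounds at 3 µM and 10 µM (some 1 µM) were added with 2 ng/ml TGFβ-1 to A549 cells stably expressing an SBE-driven luciferase, then cultured 4 hr. Chemiluminescent luciferase signal gave % inhibition versus TGFβ-alone and no-TGFβ controls.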

A549 cells = assay: Cell growth inhibitory activity using A549 cells (Test Example 6); type: cell-based, Human; conditions: for inhibition at 30 µM: Homo sapiens, A549, compound 30 µM, 5% serum, 40 hr, counting kit-8, read-out: Cell growth inhibition rate (%); for inhibitory activity against cell growth or BMP4 signals: as compared with Example 261 or Example 269 described in WO 03/00660
Experimental: Human lung cancer epithelial cells (A549) (available from ATCC) were suspended to a concentration of 3 × 10^4/ml in a DMEM/F12 medium containing 10%FCS, and the suspension was inoculated in 100 µl portions in wells of a 96-well plate. On the following day, a stock solution of the test compound which had been adjusted to 10 mM with DMSO was adjusted with a serum-free DMEM/F12 medium to a dose (60 µM) which was twice the evaluation concentration. After removing the medium inoculated in the 96 wells on the previous day, the solution was added in 50 µl portions to the plate. Next, a DMEM/F12 medium containing 10% serum was added in 50 µl portions to the wells, followed by culturing at 37°C for 40 hr. The final concentration of the serum and the concentration of the evaluation compound were 5% and 30 µM, respectively. The compounds according to the present invention synthesized in the working example were used as the test compound. […]
After 40 hr, the culture was removed, and 100 µl of a solution prepared by diluting counting kit-8 (purchased from Dojindo) with a serum-free F12 medium by 10 times was added, followed by culturing at 37°C for 20 to 30 min. After the confirmation of suitable color development, the absorbance at 450 nm was measured with ARVO (purchased from Wallach Bethold Japan). The cell growth inhibition in the test compound added wells were determined by presuming the absorbance value in the test compound-free wells to be 0% and the absorbance value in the cell-free wells to be 100%.

BMP4 signal = assay: BMP signal inhibitory activity, p(GCCG)12-Luc reporter in HepG2 cells (Test Example 7); type: cell-based, human; conditions: Inhibitory activity against BMP4 signal (IC50)/Inhibitory activity against TGFβ signal (IC50); HepG2 reporter cells, BMP4 20 ng/ml, TGFβ-1 2 ng/ml, 4 hr
Text: The inhibitory activity of the compounds according to the present invention against BMP signals was studied using a cell line through which TGFb and BMP signals can be simultaneously observed. Specifically, the cell lines capable of detecting the two signal was generated by transfecting reporter plasmids for detection of TGFb and BMP signals into a human hepatocarcinoma cell line HepG2(available from ATCC) and was used as evaluation cells. For detection of TGF-beta signal, the plasmid having four tandem binding sequences of Smad2/3, TGF-beta signal transducers, to the upstream of a luciferases gene were used as a reporter plasmid (p(SBE)4-Luc/hygro). For detection of BMP signal, the plasmid having twelve tandem binding sequences of Smadl/5/8, BMP signal transducers, to the upstream of a luciferases gene were used as a reporter plasmid (p(GCCG)12-Luc/neo), according to the method described in Mol Biol Cell. 2000 11(2): 555-65. The test compound and TGFβ-1 (2 ng/ml) or BMP4 (20 ng/ml) were added to the cells, and the mixture was cultured for 4 hr. The compounds according to the present invention synthesized in the working example were used as the test compound. […] After the culture, the luciferase activity of the cells was measured by chemiluminescence (Steady Glo (trademark) luciferase assay system, available from Promega). Likewise, the luciferase activity was measured as control for the culture of cells with only TGFβ or BMP4 added thereto and the culture of cells with the addition of none of TGFβ, BMP4 and the test compound. The inhibitory activity IC50 of the compounds against TGFβ and BMP4 was calculated based on the results of measurement, and the kinase selectivity for BMP4 was determined by the following method. Kinase selectivity for BMP4 (times) = Inhibitory activity against BMP4 signal (IC50)/Inhibitory activity against TGFβ signal (IC50)

[1] = test compound 3 µM, TGFβ-1 2 ng/ml, 4 hr, Table 1A
[2] = test compound 10 µM, TGFβ-1 2 ng/ml, 4 hr, Table 1A
[3] = 3 µM, compounds of Reference Examples (Test Example 1B)
[4] = 10 µM, compounds of Reference Examples (Test Example 1B)

## CCc1ccc(Oc2ccnc3cc(C(N)=O)c(OC)cc23)c(-c2ccccn2)n1 [Compound 179, 4-(6-Ethyl-[2,2']bipyridinyl-3-yloxy)-6-methoxy-quinoline-7-carboxylic acid amide]
TGFβ signal; [1]
  inhibition at 3 µM: 100%
TGFβ signal; [2]
  inhibition at 10 µM: 100%
A549 cells
  inhibition at 30 µM: -3%
  inhibitory activity against cell growth or BMP4 signals: reduced inhibitory activity

## CCc1ccc(Oc2ccnc3ccc(OCCO)cc23)c(-c2ccccn2)n1 [Compound 181, 2-[4-(6-Ethyl-[2,2']bipyridinyl-3-yloxy)-quinolin-6-yloxy]-ethanol]
TGFβ signal; [1]
  inhibition at 3 µM: 100%
TGFβ signal; [2]
  inhibition at 10 µM: 100%
A549 cells
  inhibition at 30 µM: -7%
  inhibitory activity against cell growth or BMP4 signals: reduced inhibitory activity
BMP4 signal
  Selectivity for BMP (times): 308 times

## CCc1ccc(Oc2ccnc3ccc(OCCOC(C)=O)cc23)c(-c2ccccn2)n1 [Compound 182, 2-[4-(6-Ethyl-[2,2']bipyridinyl-3-yloxy)-quinolin-6-yloxy]-ethyl acetate]
TGFβ signal; [1]
  inhibition at 3 µM: 99%
TGFβ signal; [2]
  inhibition at 10 µM: 100%
A549 cells
  inhibition at 30 µM: -8%
  inhibitory activity against cell growth or BMP4 signals: reduced inhibitory activity
BMP4 signal
  Selectivity for BMP (times): 195 times

## CCc1ccc(Oc2ccnc3ccc(OC(C)=O)cc23)c(-c2ccccn2)n1 [Compound 186, 4-(6-Ethyl-[2,2']bipyridinyl-3-yloxy)-quinolin-6-ylacetate]
TGFβ signal; [1]
  inhibition at 3 µM: 100%
TGFβ signal; [2]
  inhibition at 10 µM: 100%
A549 cells
  inhibition at 30 µM: -2%

## Cc1ccc(Oc2ccnc3ccc(OCCO)cc23)c(-c2ccccn2)n1 [Compound 205, 2-[4-(6-Methyl-[2,2']bipyridyl-3-yloxy)-quinolin-6-yloxy]-ethanol]
TGFβ signal; [1]
  inhibition at 3 µM: 98%
A549 cells
  inhibition at 30 µM: 9%
  inhibitory activity against cell growth or BMP4 signals: reduced inhibitory activity

## COc1cc2nccc(Oc3cc4ccccc4nc3OC3CCCC3)c2cc1OC [r280]
TGFβ signal; [3]
  inhibition at 3 µM: 45%
TGFβ signal; [4]
  inhibition at 10 µM: 88%

## COc1cc2nccc(Oc3cc4ccccc4nc3I)c2cc1OC [r282]
TGFβ signal; [3]
  inhibition at 3 µM: 96%
TGFβ signal; [4]
  inhibition at 10 µM: 100%

## COc1cc2nccc(Oc3cc4ccccc4nc3-c3ccc(F)cc3)c2cc1OC [r285]
TGFβ signal; [3]
  inhibition at 3 µM: 65%
TGFβ signal; [4]
  inhibition at 10 µM: 100%

## COc1cc2nccc(Oc3cc4ccccc4nc3-c3ccc(F)cc3F)c2cc1OC [r286]
TGFβ signal; [3]
  inhibition at 3 µM: 93%
TGFβ signal; [4]
  inhibition at 10 µM: 100%

## COc1cc2nccc(Oc3cc4ccccc4nc3-c3ccccn3)c2cc1OC [r287]
TGFβ signal; [3]
  inhibition at 3 µM: 100%
TGFβ signal; [4]
  inhibition at 10 µM: 100%

## COc1cc2nccc(Oc3cc4ccccc4nc3-c3ccncc3)c2cc1OC [r289]
TGFβ signal; [3]
  inhibition at 3 µM: 80%
TGFβ signal; [4]
  inhibition at 10 µM: 99%

## COc1cc2nccc(Oc3cc4ccccc4nc3-c3cc(C)c(Cl)s3)c2cc1OC [r290]
TGFβ signal; [3]
  inhibition at 3 µM: 18%
TGFβ signal; [4]
  inhibition at 10 µM: 57%

## COc1cc2nccc(Oc3c(C)nc4ccccc4c3Br)c2cc1OC [r291]
TGFβ signal; [3]
  inhibition at 3 µM: 14%
TGFβ signal; [4]
  inhibition at 10 µM: 78%

## COc1cc2nccc(Oc3cc4cc(F)ccc4nc3-c3ccccc3)c2cc1OC [r292]
TGFβ signal; [3]
  inhibition at 3 µM: 86%
TGFβ signal; [4]
  inhibition at 10 µM: 100%

## COc1cc2nccc(Oc3ccc4[nH]ccc4c3)c2cc1OC [r293]
TGFβ signal; [3]
  inhibition at 3 µM: 65%
TGFβ signal; [4]
  inhibition at 10 µM: 95%

## COc1cc2nccc(Oc3ccc4ncsc4c3I)c2cc1OC [r294]
TGFβ signal; [3]
  inhibition at 3 µM: 53%
TGFβ signal; [4]
  inhibition at 10 µM: 77%

## COc1cc2nccc(Oc3cc4cccnc4cc3C)c2cc1OC [r296]
TGFβ signal; [3]
  inhibition at 3 µM: 86%
TGFβ signal; [4]
  inhibition at 10 µM: 100%

## COc1cc2nccc(Oc3ccc4ncccc4c3Cl)c2cc1OC [r298]
TGFβ signal; [3]
  inhibition at 3 µM: 30%
TGFβ signal; [4]
  inhibition at 10 µM: 75%

## COc1cc2nccc(Oc3c(C)cc4ncccc4c3Cl)c2cc1OC [r302]
TGFβ signal; [3]
  inhibition at 3 µM: 30%
TGFβ signal; [4]
  inhibition at 10 µM: 90%

## COc1cc2nccc(Oc3cc4ccncc4cc3-c3cccnc3)c2cc1OC [r304]
TGFβ signal; [3]
  inhibition at 3 µM: 26%
TGFβ signal; [4]
  inhibition at 10 µM: 64%

## COc1cc2nccc(Oc3ccc4oc(=O)cc(C)c4c3)c2cc1OC [r306]
TGFβ signal; [3]
  inhibition at 3 µM: 20%
TGFβ signal; [4]
  inhibition at 10 µM: 53%

## COc1cc2nccc(Oc3cc4cnccc4nc3C)c2cc1OC [r311]
TGFβ signal; [3]
  inhibition at 3 µM: 53%
TGFβ signal; [4]
  inhibition at 10 µM: 90%

## COc1ccc(Oc2ccnc3cc(O)c(OC)cc23)c(C(C)=O)c1 [r312]
TGFβ signal; [3]
  inhibition at 3 µM: 50%
TGFβ signal; [4]
  inhibition at 10 µM: 76%

## COc1cc2c(Oc3cc4cnccc4nc3C)ccnc2cc1OCC(CO)CO [r409]
TGFβ signal; [3]
  inhibition at 3 µM: 41%
TGFβ signal; [4]
  inhibition at 10 µM: 88%

## COc1cc2c(Oc3cc4ccccc4nc3C)ccnc2cc1-c1ccncc1 [r414]
TGFβ signal; [3]
  inhibition at 3 µM: 82%
TGFβ signal; [4]
  inhibition at 10 µM: 100%

## COc1cc2nccc(Oc3cc4ccccc4nc3C)c2cc1OCC(O)CO (stereo not drawn) [r417]
TGFβ signal; [3]
  inhibition at 3 µM: 98%
TGFβ signal; [4]
  inhibition at 10 µM: 100%

## COc1cc2nccc(Nc3cnc4ccccc4c3)c2cc1OC [r418]
TGFβ signal; [3]
  inhibition at 3 µM: 46%
TGFβ signal; [4]
  inhibition at 10 µM: 73%

## COc1cc2nccc(Sc3ccc4ccccc4n3)c2cc1OC [r420]
TGFβ signal; [3]
  inhibition at 3 µM: 2%
TGFβ signal; [4]
  inhibition at 10 µM: 62%

## COc1cc2nccc(Oc3cc4cccnc4nc3-c3ccccn3)c2cc1OC [r421]
TGFβ signal; [3]
  inhibition at 3 µM: 94%
TGFβ signal; [4]
  inhibition at 10 µM: 100%

## CCc1nc2ccncc2cc1Oc1ccnc2cc(OC)c(OC)cc12 [r424]
TGFβ signal; [3]
  inhibition at 3 µM: 28%
TGFβ signal; [4]
  inhibition at 10 µM: 79%

## COc1cc2nccc(Oc3cc4ccccc4cc3O)c2cc1OC [r425]
TGFβ signal; [3]
  inhibition at 3 µM: 72%
TGFβ signal; [4]
  inhibition at 10 µM: 100%

## COc1cc2nccc(Oc3cc4cccnc4nc3C(C)(C)C)c2cc1OC [r426]
TGFβ signal; [3]
  inhibition at 3 µM: 100%

## COc1cc2nccc(Oc3cc4cccnc4nc3-c3ccc(C)cc3)c2cc1OC [r428]
TGFβ signal; [3]
  inhibition at 3 µM: 67%

## COc1cc2nccc(Oc3cc(C)c(C)nc3-c3ncccc3C)c2cc1OC [r429]
TGFβ signal; [3]
  inhibition at 3 µM: 52%
TGFβ signal; [4]
  inhibition at 10 µM: 94%

## Cc1ccc(-c2nc(C)c(C)cc2Oc2ccnc3cc(C(F)(F)F)ccc23)nc1 [r433]
TGFβ signal; [3]
  inhibition at 3 µM: 91%
TGFβ signal; [4]
  inhibition at 10 µM: 100%

## COc1cc2nccc(Oc3ccc(C)nc3-c3cn[nH]c3)c2cc1OC [r434]
TGFβ signal; [3]
  inhibition at 3 µM: 100%
TGFβ signal; [4]
  inhibition at 10 µM: 100%

## COc1cc2nccc(Oc3cc(C)c(C)nc3-c3cnccc3C)c2cc1OC [r435]
TGFβ signal; [3]
  inhibition at 3 µM: 29%
TGFβ signal; [4]
  inhibition at 10 µM: 79%

## COc1cc2ncnc(Oc3cc4cccnc4nc3-c3ccccc3)c2cc1OC [r436]
TGFβ signal; [3]
  inhibition at 3 µM: 99%
TGFβ signal; [4]
  inhibition at 10 µM: 100%

## COc1cc2ncnc(Oc3cc(C)c(C)nc3-c3ccc(C)cn3)c2cc1OC [r437]
TGFβ signal; [3]
  inhibition at 3 µM: 95%
TGFβ signal; [4]
  inhibition at 10 µM: 100%

## COc1cc2nccc(Oc3ccc(C)nc3-c3cnn(C)c3)c2cc1OC [r438]
TGFβ signal; [3]
  inhibition at 3 µM: 99%
TGFβ signal; [4]
  inhibition at 10 µM: 100%

## COc1cc2nccc(Oc3cc4ccccc4nc3CCC(C)C)c2cc1OC [r439]
TGFβ signal; [3]
  inhibition at 3 µM: 43%
TGFβ signal; [4]
  inhibition at 10 µM: 95%

## COc1cc2c(Oc3cc4cccnc4nc3C)ccnc2cc1OCCN1CCCCC1 [r440]
TGFβ signal; [3]
  inhibition at 3 µM: 100%
TGFβ signal; [4]
  inhibition at 10 µM: 100%

## COc1cc2c(Oc3cc(C)c(C)nc3-c3ccc(C)cn3)ccnc2cc1OCCNCCO [r469]
TGFβ signal; [3]
  inhibition at 3 µM: 100%

— patent EP1724268A1, “COMPOUND HAVING TGF-BETA INHIBITORY ACTIVITY AND PHARMACEUTICAL COMPOSITION CONTAINING SAME” (KIRIN BEER KABUSHIKI KAISHA, priority 2004, dated 2005)
